# Measurements: US20230346827A1 (priority 2020, published 2023)
# Tested on: Mouse motor neurons
# Experiment: Gene expression array and pathway analysis, motor neurons, LMW-DS 0.01 mg/ml 48 h
# Format: cell-based
# Conditions: for number of genes: abolished nutrient effect / number of genes: new effect induced by LMW-DS / number of genes: total / number of genes: enhanced response to nutrients / number of genes: not different from control / Activation z-score / Predicted activation state relative D2 control: motor neurons; for Activation z-score / Predicted activation state relative D2 control: D0 to LMW-DS treatment
# Method: For each cell line, n=8 × 25 cm^2 culture flasks were set up. Two flasks were harvested for each cell type on the day of treatment (24 hours after seeding). This represents the Day0 time point. From the remaining flasks, three flasks were treated with Control Medium and three were treated with Culture Medium (CM) containing LMW-DS to give a final concentration of 0.01 mg/ml. Cells from the treated flasks were collected after 48 hours. Therefore the collected data represent (a) untreated cells (Day0 Controls and Day2 Controls) and (b) cells treated with LMW-DS (ILB®, Tikomed AB, Viken, Sweden, WO 2016/076780) for 48 hours (Day2 LMW-DS treated).
# The culture medium was prepared according to Table 28.
# Medium (see Table 28) was pre-warmed to 37° C. Cells were thawed in a 37° C. water bath for no longer than 2 min. 9 ml of media was gently added drop-wise. The cell suspension was mixed by inverting the tube carefully twice. The cells were counted with a Cellometer. The cells were centrifuged for 5 minutes at 200 x g. Supernatant was removed (to the last 0.5 ml) and cells were gently re-suspended by trituration. The cells from the 8 vials were mixed and distributed equally into the previously coated 25 cm^2 flasks (n=8). Cells were incubated at 37° C. with 5% CO2 for 24 hours before treatment.
# LMW-DS was provided at a stock concentration of 20 mg/ml and was kept in a temperature monitored refrigerator at 4° C. A fresh 100x LMW-DS stock (1.0 mg/ml) was prepared in sterile DMEM-F12. The concentrated drug stock was sterile filtered and added to the respective culture media (19.6 ml CM and 0.4 ml LMW-DS stock solution). The Control was made using 19.6 ml CM and 0.4 ml of DMEM-F12. LMW-DS and CM were added to the respective flasks (5 ml each) to reach the 0.01 mg/ml concentration of LMW-DS in each dish with a total of 10 ml CM each.
# CM was aspirated into a clean and labelled 15 ml Falcon tube. The flasks (without culture medium) were placed into the -80° C. freezer for 30 minutes. The CM in the Falcon tubes was spun at 3000 x g for 5 minutes. Supernatant was removed and the small pellet was re-suspended in 2.5 ml Trizol:Water (4:1) solution at room temperature (RT, ~22° C.).
# Two aliquots of 1 ml lysate were removed from each sample and 200 µl of chloroform was added to each (0.2 ml of chloroform per 1 ml of TRIzol Reagent used during the cell lysis step) and the tube was shaken vigorously. Samples were stored at RT for 2-3 minutes and subsequently centrifuged at 12,000 x g for 15 minutes at 4° C.
# The RNA was precipitated from the aqueous phase by adding an equal amount of 100% ethanol. The precipitated RNA was fixed onto a Spin Cartridge, washed twice and dried. The RNA was eluted in 50 µl warm RNase-Free Water. The amount and quality of the purified RNA was measured by Nanodrop. The RNA was stored at -80° C. before transfer to Source Bioscience for Array analysis.
# The expression data were downloaded into separate files for each cell line. The ‘Background corrected’ expression is the data from the “gProcessedSignal” of the arrays that is the result of the background signal extracted from the actual signal of the relevant probe. This is the most often used variable in array analysis. The background corrected signal was log2 transformed for all samples for statistical analysis. To reduce the false discovery rate in the samples, the signals that were below ‘expression level’ were removed. The ‘below expression’ level was set at 5 for the log2 transformed expression values.
# Based on the expression pattern of the Control probes on each array it was decided to carry out Median Centering for all arrays before analysis to reduce the variability of the results. […]
# [1] = pathway analysis of gene expression
substance,measurement,setting,value
sodium salt of dextran sulfate [LMW-DS],number of differentially expressed genes,D0 control to D2 LMW-DS treated,315
same,number of differentially expressed genes,D0 control to D2 LMW-DS treated (second statement),425
same,number of genes: abolished nutrient effect,no effect,177
same,number of genes: new effect induced by LMW-DS,no effect,108
same,number of genes: total,no effect,285
same,number of genes: abolished nutrient effect,significant downregulation,47
same,number of genes: enhanced response to nutrients,significant downregulation,36
same,number of genes: new effect induced by LMW-DS,significant downregulation,375
same,number of genes: not different from control,significant downregulation,104
same,number of genes: total,significant downregulation,562
same,number of genes: abolished nutrient effect,significant upregulation,40
same,number of genes: enhanced response to nutrients,significant upregulation,103
same,number of genes: new effect induced by LMW-DS,significant upregulation,71
same,number of genes: not different from control,significant upregulation,75
same,number of genes: total,significant upregulation,289
same,number of genes: abolished nutrient effect,total,264
same,number of genes: enhanced response to nutrients,total,139
same,number of genes: new effect induced by LMW-DS,total,554
same,number of genes: not different from control,total,179
same,number of genes: total,total,1136
same,amyloid-β production,[1],preventing
same,inhibition of glutamate production,[1],not affected
same,level of H2O2,[1],reduced
same,Activation z-score,upstream regulator AGT,2.631
same,Predicted activation state relative D2 control,upstream regulator AGT,Activated
same,Activation z-score,upstream regulator BMP4,0.972
same,Predicted activation state relative D2 control,upstream regulator BMP4,More activated relative to control
same,Activation z-score,upstream regulator BMP6,0.13
same,Predicted activation state relative D2 control,upstream regulator BMP6,More activated relative to control
same,Activation z-score,upstream regulator BMP7,1.092
same,Predicted activation state relative D2 control,upstream regulator BMP7,More activated relative to control
same,Activation z-score,upstream regulator INHA,0.588
same,Predicted activation state relative D2 control,upstream regulator INHA,More activated relative to control
